Test results reported in PubChem BioAssay (NCI).
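In this assay, cells in 96-well plates receive the compound at five concentrations for 48 hours. Endpoints are linearly interpolated between the surrounding concentrations. GI50 marks 50% less growth. TGI marks complete inhibition of growth.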

Assays:
Assay in all cases: NCI-60 cell line screen, 48 h
CAKI-1 renal = system: CAKI-1 renal
OVCAR-5 ovarian = system: OVCAR-5 ovarian
UACC-257 melanoma = system: UACC-257 melanoma
M14 melanoma = system: M14 melanoma
HCT-116 colon = system: HCT-116 colon
MALME-3M melanoma = system: MALME-3M melanoma
NCI-H522 lung = system: NCI-H522 lung
MOLT-4 leukemia = system: MOLT-4 leukemia
HCC-2998 colon = system: HCC-2998 colon
NCI-H23 lung = system: NCI-H23 lung
SN12C renal = system: SN12C renal
UO-31 renal = system: UO-31 renal
ACHN renal = system: ACHN renal
EKVX NSCLC = system: EKVX NSCLC
T-47D breast = system: T-47D breast
LOX IMVI melanoma = system: LOX IMVI melanoma
DU-145 prostate = system: DU-145 prostate
COLO 205 colon = system: COLO 205 colon
HCT-15 colon = system: HCT-15 colon
MDA-MB-231 breast = system: MDA-MB-231 breast
OVCAR-3 ovarian = system: OVCAR-3 ovarian
HL-60(TB) leukemia = system: HL-60(TB) leukemia
SW-620 colon = system: SW-620 colon
TK-10 renal = system: TK-10 renal
IGROV1 ovarian = system: IGROV1 ovarian
OVCAR-8 ovarian = system: OVCAR-8 ovarian
SF-268 CNS = system: SF-268 CNS
SNB-19 CNS = system: SNB-19 CNS
SK-MEL-5 melanoma = system: SK-MEL-5 melanoma

SMILES: CC(C)=CCc1c(O)c(CC=C(C)C)c2c(c1O)C(=O)C1=C[C@@H]3C[C@H]4C(C)(C)O[C@@](C/C=C(\C)C(=O)O)(C3=O)[C@@]14O2
- GI50 (CAKI-1 renal): 29.4 µM
- TGI (CAKI-1 renal): > 100 µM
- GI50 (OVCAR-5 ovarian): 32.9 µM
- TGI (OVCAR-5 ovarian): 98.1 µM
- GI50 (UACC-257 melanoma): 21.6 µM
- TGI (UACC-257 melanoma): 55 µM
- GI50 (M14 melanoma): 19.9 µM
- TGI (M14 melanoma): 52.3 µM
- GI50 (HCT-116 colon): 18 µM
- TGI (HCT-116 colon): 34.2 µM
- GI50 (MALME-3M melanoma): 18 µM
- TGI (MALME-3M melanoma): 50.9 µM
- GI50 (NCI-H522 lung): 15.9 µM
- TGI (NCI-H522 lung): 36 µM
- GI50 (MOLT-4 leukemia): 25.1 µM
- TGI (MOLT-4 leukemia): 93.4 µM
- GI50 (HCC-2998 colon): 19.6 µM
- TGI (HCC-2998 colon): 40.1 µM
- GI50 (NCI-H23 lung): 22.5 µM
- TGI (NCI-H23 lung): 69.2 µM
- GI50 (SN12C renal): 29.4 µM
- TGI (SN12C renal): > 100 µM
- GI50 (UO-31 renal): 14.3 µM
- TGI (UO-31 renal): 31.8 µM
- GI50 (ACHN renal): 29.7 µM
- TGI (ACHN renal): > 100 µM
- GI50 (EKVX NSCLC): 27.5 µM
- TGI (EKVX NSCLC): > 100 µM
- GI50 (T-47D breast): 23.6 µM
- TGI (T-47D breast): 79.3 µM
- GI50 (LOX IMVI melanoma): 14.4 µM
- TGI (LOX IMVI melanoma): 28.6 µM
- GI50 (DU-145 prostate): 25.9 µM
- TGI (DU-145 prostate): 68 µM
- GI50 (COLO 205 colon): 19.3 µM
- TGI (COLO 205 colon): 45.5 µM
- GI50 (HCT-15 colon): 23.9 µM
- TGI (HCT-15 colon): > 100 µM
- GI50 (MDA-MB-231 breast): 42.1 µM
- TGI (MDA-MB-231 breast): > 100 µM
- GI50 (OVCAR-3 ovarian): 18.1 µM
- TGI (OVCAR-3 ovarian): 34.2 µM
- GI50 (HL-60(TB) leukemia): 21.1 µM
- TGI (HL-60(TB) leukemia): 70.3 µM
- GI50 (SW-620 colon): 19.9 µM
- TGI (SW-620 colon): 50.4 µM
- GI50 (TK-10 renal): 25.6 µM
- TGI (TK-10 renal): 50.9 µM
- GI50 (IGROV1 ovarian): 26.7 µM
- TGI (IGROV1 ovarian): 83.2 µM
- GI50 (OVCAR-8 ovarian): 28.4 µM
- TGI (OVCAR-8 ovarian): > 100 µM
- GI50 (SF-268 CNS): 26.6 µM
- TGI (SF-268 CNS): > 100 µM
- GI50 (SNB-19 CNS): 30.2 µM
- TGI (SNB-19 CNS): 94.4 µM
- GI50 (SK-MEL-5 melanoma): 18.8 µM
